Measured values: patent US20160200789A1, “IL4 CONJUGATED TO ANTIBODIES AGAINST EXTRACELLULAR MATRIX COMPONENTS” (PHILOGEN S.P.A., priority 2013, published 2016)

Legend:
[1] = molecular target: T1, EDA domain of fibronectin (Homo sapiens, UniProt P02751); assay: Surface plasmon analysis (BIAcore) on EDA antigen-coated sensor chip; type: binding
T1 construct: surface plasmon analysis (BIAcore) on an EDA antigen-coated sensor chip
Description: The fusion protein was expressed and purified to homogeneity as described for F8-IL4 above.

[2] = tested on: CTLL2 cells; assay: CTLL2 cell proliferation bioactivity assay; type: cell-based; conditions: 24 h; for EC50: CTLL2 cells, 20000 cells/well
Description: The biological activity of murine IL4 was determined by its ability to stimulate the proliferation of CTLL2 cells. […] After incubation at 37° C. for 24 h, cell proliferation was determined with Cell Titer Aqueous One Solution (Promega).

[3] = tested on: tumour neovascular structures in murine F9, CT26 and A20 tumours; assay: Immunofluorescence on untreated tumour sections; design: species or system mouse; conditions: biotinylated protein on F9, CT26 and A20 tumour sections
Description: For detection streptavidin-Alexa Fluor 488 and anti-rat-Alexa Fluor 594 (Invitrogen) were used. Slides were mounted with fluorescent mounting medium (Dako) and analyzed with an Axioskop2 mot plus microscope (Zeiss).

[4] = tested on: F9 teratocarcinoma; assay: Quantitative biodistribution in F9 tumour-bearing mice; type: in vivo, mouse; conditions: 15 μg radioiodinated protein i.v., 24 hours
Description: The in vivo targeting performance was assessed by quantitative biodistribution where 15 μg of radioiodinated fusion protein was injected i.v. into the lateral tail vein of immunocompetent 11-12 week old female Sv129Ev mice (obtained from Charles River [Germany]), bearing sub-cutaneously grafted F9 tumours (for labelling protocol, see (Pasche et al. 2011)). Mice were sacrificed 24 hours after injection, organs were excised, weighed and radioactivity was measured using a Packard Cobra γ counter.

[5] = tested on: Fibrosarcoma Wehi-164; assay: Therapy of Wehi-164 fibrosarcoma-bearing mice; type: in vivo, mouse; conditions: 4 cycles i.v. every 48 h, equimolar doses
Description: Fibrosarcoma Wehi-164 exponentially growing cells were harvested, repeatedly washed and re-suspended in serum-free medium prior to injection. The tumor cells were injected subcutaneously (5×10^6) in the right flank of Balb/c mice. Tumor weights (mg=mm^3) were calculated as follows: (length [mm]×width^2 [mm^2])/2.
Treatment started when tumors reached approximately 100 mg. Mice received 4 cycles of therapy, every 48 h starting from day 5 after tumor cell injection. L19-IL4 (SEQ ID NO:64) was administered i.v. at the dose of 130 μg/mouse; equimolar amounts of KSF-IL4 (130 μg/mouse) (SEQ ID NO:44), KSF-IL10 (150 μg/mouse) (SEQ ID NO:65) and L19-IL10 (150 μg/mouse) (SEQ ID NO:66) were administered. Control mice received sterile vehicle solution (PBS). The results are shown in FIG. 16 (mean tumour weight over time). The number of mice in each treatment group was 3-4.

[6] = tested on: endometriotic lesions in Balb/c mice; assay: Endometriosis model in Balb/c mice; type: in vivo, mouse; conditions: 200 μg/mouse i.v. days 1, 4, 7; day 15; vs PBS
Description: Endometriosis was induced in sixty eight-week old female Balb/c mice according to the protocol described by Somigliana et al. (1999).
One day after the implantation of endometrial tissue, pairs of mice (who received tissue from the same donor) were treated either with intravenous (i.v.) injections of F8-murine IL4 (200 μg/mouse; SEQ ID NO: 21) or PBS (group 1); or with i.v. injections of KSF-murine IL4 (200 μg/mouse; SEQ ID NO: 44) or PBS (group 2). The same treatment was repeated at days 4 and 7. Mice were sacrificed at day 15.

[7] = tested on: A20 lymphoma; assay: Therapy studies in A20 tumour-bearing mice; conditions: A20, F8-IL4 vs KSF-IL4 study
Description: (§1) Data represent mean tumour volumes (±SEM), n=5 mice per group. […] Data represent mean tumour volumes (±SEM), n=5 mice per group.
Differences in tumor volume, % ID/g and Tumor-to-blood ratio between therapeutic groups were compared using Graphpad Prism's repeated measures (mixed model) ANOVA analysis.
For this, as well as the other experiments described below, F9 teratocarcinoma (CRL-1720; ATCC, Molsheim Cedex, France), CT26 colon carcinoma (CRL-2638; ATCC, Molsheim Cedex, France) and A20 lymphoma (TIB-208; ATCC, Molsheim Cedex, France) were grown according to the supplier's protocol and tumour cells implanted subcutaneously in the flank using 25×10^6 cells (F9), 2×10^6 cells (CT26) or 8×10^6 cells (A20). F9 teratocarcinoma cells were implanted into 129/SvEv mice (Charles River, Sulzfeld, Germany), CT26 colon carcinoma cells were implanted into Balb/c mice (Elevage Janvier, Le Genest-St-Isle, France) and A20 lymphoma cells were implanted into Balb/c mice (Elevage Janvier, Le Genest-St-Isle, France). Mice were sacrificed when tumour volumes reached a maximum of 2000 mm^3.

[8] = tested on: CT26 colon carcinoma; assay: Therapy studies in CT26 tumour-bearing mice
Description: as §1
In the description of the below experiments, data are expressed as the mean (±SEM). Differences in tumor volume, % ID/g and Tumor-to-blood ratio between therapeutic groups were compared using Graphpad Prism's repeated measures (mixed model) ANOVA analysis.
Mice were sacrificed when tumour volumes reached a maximum of 2000 mm^3.
In order to study a second immunocompetent mouse model of cancer, the inventors focused on Balb/c mice (obtained from Elevage Janvier [France]) bearing subcutaneous CT26 tumours of colorectal origin.

[9] = tested on: F9 teratocarcinoma; assay: Therapy studies in F9 teratocarcinoma-bearing mice; type: in vivo, mouse; conditions: mouse, in vivo
Description: In a dose finding study, F9 tumour-bearing mice were randomly grouped (n=5) and injected intravenously (i.v.) into the lateral tail vein when tumours were clearly palpable. […] The therapeutic antibodies were all dissolved in phosphate buffered saline (PBS) and this buffer was also used in the negative control treatment groups. The mice were monitored daily and tumour volume was measured with a calliper (volume=length×width^2×0.5).

[10] = tested on: F9 teratocarcinoma; assay: Biodistribution of F8-hIL4 and F8-hIL4-N284Q in F9 tumour-bearing mice; type: in vivo, mouse; conditions: 10 μg radioiodinated antibody i.v., 24 hours
Description: 11-12 weeks old female 129/SvEv mice were obtained from Charles River (Sulzfeld, Germany). Tumor cells were implanted subcutaneously in the flank of the mice using 25×10^6 cells.
The in vivo targeting performance of F8-hIL4, and its unglycosylated variant F8-hIL4-N284Q were evaluated in quantitative biodistribution studies. The antibodies were radioiodinated using […] and Chloramine T hydrate according to the protocol of Pasche et al. 2011. 10 μg of each radioiodiated antibody were injected into the lateral tail vein of the mice. Injected mice were sacrificed 24 hours after injection. Organs were then excised and radioactivity was counted in Cobra gamma counter (Packard, Meriden, Conn.).

T1 sequence (P02751 1727-1814 limits assumed): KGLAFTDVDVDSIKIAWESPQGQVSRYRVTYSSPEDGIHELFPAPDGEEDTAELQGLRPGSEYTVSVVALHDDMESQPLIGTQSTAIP

KSF-IL4: antibody KSF (specific to hen egg lysozyme, negative control) in diabody format fused to murine interleukin 4 [reference compound]
affinity for the cognate antigen [1]: retained a high-affinity for the cognate antigen | EC50 [2]: 0.02 nM | biological cytokine activity ([2]; CTLL2 proliferation): comparable to that of recombinant murine IL4 | recognition of tumour neovascular structures [3]: not | accumulation at the tumour site (% ID/g) [4]: not observed | therapeutic activity (tumour weight) [5]: do not promote any significant therapeutic activity | number of the endometriotic lesions [6]: did not have a significant effect | volume of the endometriotic lesions [6]: did not have a significant effect | statistical significance, tumour volume vs PBS [7]: not statistically significant | therapeutic performance ([8]; 90 μg i.v. every 48 h): not better than saline | statistical significance, tumour volume vs PBS ([8]; CT26, F8-IL4 vs KSF-IL4 study): not statistically significant

KSF-IL10: KSF antibody (hen egg lysozyme) conjugated to IL10; untargeted IL10
therapeutic activity (tumour weight) [5]: do not promote any significant therapeutic activity

recombinant IL4: recombinant murine IL4 (eBioscience)
EC50 [2]: 0.028 nM

B1: F8-IL12: IL12-based immunocytokine: murine IL12 fused to single chain F8 diabody (protein)
chain: MWELEKDVYVVEVDWTPDAPGETVNLTCDTPEEDDITWTSDQRHGVIGSGKTLTITVKEFLDAGQYTCHKGGETLSHSHLLLHKKENGIWSTEILKNFKNKTFLKCEAPNYSGRFTCSWLVQRNMDLKFNIKSSSSSPDSRAVTCGMASLSAEKVTLDQRDYEKYSVSCQEDVTCPTAEETLPIELALEARQQNKYENYSTSFFIRDIIKPDPPKNLQMKPLKNSQVEVSWEYPDSWSTPHSYFSLKFFVRIQRKKEKMKETEEGCNQKGAFLVEKTSTEVQCKGGNVCVQAQDRYYNSSCSKWACVPCRVRSGGGGSGGGGSGGGGSRVIPVSGPARCLSQSRNLLKTTDDMVKTAREKLKHYSCTAEDIDHEDITRDQTSTLKTCLPLELHKNESCLATRETSSTTRGSCLPPQKTSLMMTLCLGSIYEDLKMYQTEFQAINAALQNHNHQQIILDKGMLVAIDELMQSLNHNGETLRQKPPVGEADPYRVKMKLCILLHAFSTRVVTINRVMGYLSSAGSADGGEVQLLESGGGLVQPGGSLRLSCAASGFTFSLFTMSWVRQAPGKGLEWVSAISGSGGSTYYADSVKGRFTISRDNSKNTLYLQMNSLRAEDTAVYYCAKSTHLYLFDYWGQGTLVTVSSGGSGGEIVLTQSPGTLSLSPGERATLSCRASQSVSMPFLAWYQQKPGQAPRLLIYGASSRATGIPDRFSGSGSGTDFTLTISRLEPEDFAVYYCQQMRGRPPTFGQGTKVEIKSSSSGSSSSGSSSSGEVQLLESGGGLVQPGGSLRLSCAASGFTFSLFTMSWVRQAPGKGLEWVSAISGSGGSTYYADSVKGRFTISRDNSKNTLYLQMNSLRAEDTAVYYCAKSTHLYLFDYWGQGTLVTVSSGGSGGEIVLTQSPGTLSLSPGERATLSCRASQSVSMPFLAWYQQKPGQAPRLLIYGASSRATGIPDRFSGSGSGTDFTLTISRLEPEDFAVYYCQQMRGRPPTFGQGTKVEIK
modifications: Synthetic sequence Amino acid sequence of (murine)IL12-F8-F8 of PCT/EP2014/053998
notes: IL12-based immunocytokine: murine IL12 fused to single chain F8 diabody
single-agent therapeutic activity [9]: potent single-agent therapeutic activity

B2: L19-IL4: L19 diabody (anti-EDB of fibronectin) fused to murine IL4 (protein)
chain: EVQLLESGGGLVQPGGSLRLSCAASGFTFSSFSMSWVRQAPGKGLEWVSSISGSSGTTYYADSVKGRFTISRDNSKNTLYLQMNSLRAEDTAVYYCAKPFPYFDYWGQGTLVTVSSGGSGGEIVLTQSPGTLSLSPGERATLSCRASQSVSSSFLAWYQQKPGQAPRLLIYYASSRATGIPDRFSGSGSGTDFTLTISRLEPEDFAVYYCQQTGRIPPTFGQGTKVEIKSSSSGSSSSGSSSSGHIHGCDKNHLREIIGILNEVTGEGTPCTEMDVPNVLTATKNTTESELVCRASKVLRIFYLKHGKTPCLKKNSSVLMELQRLFRAFRCLDSSISCTMNESKSTSLKDFLESLKSIMQMDYS
modifications: Synthetic sequence Amino acid sequence of the L19-murine IL4 conjugate of PCT/EP2014/053998
therapeutic activity (tumour weight) [5]: shows therapeutic activity

B3: F8-hIL4: F8 diabody fused to human IL4, glycosylated (protein)
chain: EVQLLESGGGLVQPGGSLRLSCAASGFTFSLFTMSWVRQAPGKGLEWVSAISGSGGSTYYADSVKGRFTISRDNSKNTLYLQMNSLRAEDTAVYYCAKSTHLYLFDYWGQGTLVTVSSGGSGGEIVLTQSPGTLSLSPGERATLSCRASQSVSMPFLAWYQQKPGQAPRLLIYGASSRATGIPDRFSGSGSGTDFTLTISRLEPEDFAVYYCQQMRGRPPTFGQGTKVEIKSSSSGSSSSGSSSSGHKCDITLQEIIKTLNSLTEQKTLCTELTVTDIFAASKNTTEKETFCRAATVLRQFYSHHEKDTRCLGATAQQFHRHKQLIRFLKRLDRNLWGLAGLNSCPVKEANQSTLENFLERLKTIMREKYSKCSS
modifications: Synthetic sequence Amino acid sequence of F8 - (human) IL4 of PCT/EP2014/053998
notes: F8 diabody fused to human IL4, glycosylated
accumulation at the tumor site (% ID/g) [10]: comparable preferential accumulation at the tumor site

B4: F8-hIL4-N284Q: unglycosylated F8-human IL4 mutant, asparagine 284 substituted with glutamine (protein)
chain: EVQLLESGGGLVQPGGSLRLSCAASGFTFSLFTMSWVRQAPGKGLEWVSAISGSGGSTYYADSVKGRFTISRDNSKNTLYLQMNSLRAEDTAVYYCAKSTHLYLFDYWGQGTLVTVSSGGSGGEIVLTQSPGTLSLSPGERATLSCRASQSVSMPFLAWYQQKPGQAPRLLIYGASSRATGIPDRFSGSGSGTDFTLTISRLEPEDFAVYYCQQMRGRPPTFGQGTKVEIKSSSSGSSSSGSSSSGHKCDITLQEIIKTLNSLTEQKTLCTELTVTDIFAASKQTTEKETFCRAATVLRQFYSHHEKDTRCLGATAQQFHRHKQLIRFLKRLDRNLWGLAGLNSCPVKEANQSTLENFLERLKTIMREKYSKCSS
modifications: Synthetic sequence Amino acid sequence of F8 - (human) IL4 N284Q mutant of PCT/EP2014/053998
notes: unglycosylated F8-human IL4 mutant, asparagine 284 substituted with glutamine
accumulation at the tumor site (% ID/g) [10]: comparable preferential accumulation at the tumor site
